26 molecules from patent US20230192686A1, “1H-PYRROLO[2,3-B]PYRIDINES AND PREPARATION AND USES THEREOF” (BioSplice Therapeutics, Inc., priority 2021, published 2023) can be followed below.

The target of this test is recombinant DYRK1A kinase (Homo sapiens, UniProt Q13627). Briefly: DYRK1A kinase assay (Ser/Thr 18 peptide Z-lyte FRET). As to conditions: DYRK1A kinase activity; 15 μM ATP, 4 μM Ser/Thr peptide 18, one hour at room temperature. It counts as biochemical. The essentials: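 Recombinant DYRK1A at 0.25 μg/mL was incubated 1 h at room temperature with 15 μM ATP, 4 μM Ser/Thr 18 peptide and compound, in duplicate, 11-point series from 10 μM. Phosphorylation was read by Z-lyte FRET after 1 h protease development, as the coumarin/fluorescein emission ratio converted to % phosphorylation. IC50 by non-linear regression.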

Each structure is given as a SMILES string.

For `CN1CCN(C(=O)c2cnn3ccc(-c4c[nH]c5ncc(F)cc45)cc23)CC1` [Compound 257, (5-(5-Fluoro-1H-pyrrolo[2,3-b]pyridin-3-yl)pyrazolo[1,5-a]pyridin-3-yl)(4-methylpiperazin-1-yl)methanone], the EC50 (commonly the concentration at which the effect is half-maximal) was 16 nM.

Take `Cc1nc2c(F)cc(-c3c[nH]c4ncc(Nc5ccnc(N6CCN(C)CC6)c5)cc34)cc2n1C(C)C` [Compound 871, 3-(4-Fluoro-1-isopropyl-2-methyl-1H-benzo[d]imidazol-6-yl)-N-(2-(4-methylpiperazin-1-yl)pyridin-4-yl)-1H-pyrrolo[2,3-b]pyridin-5-amine]: the EC50 is 2 nM.

As to `O=C1CC2(CCNCC2)Oc2cc(-c3c[nH]c4ncccc34)ccc21` [Compound 83, 7-(1H-Pyrrolo[2,3-b]pyridin-3-yl)spiro[chromane-2,4′-piperidin]-4-one], the EC50 stood at 29 nM.

With `CN1CCN(C(=O)c2cnc3[nH]cc(-c4ccn5ncc(-c6cnn(C)c6)c5c4)c3c2)CC1` [Compound 502, (3-(3-(1-Methyl-1H-pyrazol-4-yl)pyrazolo[1,5-a]pyridin-5-yl)-1H-pyrrolo[2,3-b]pyridin-5-yl)(4-methylpiperazin-1-yl)methanone], the EC50 was found to be 16 nM.

For `Cc1nc2c(F)cc(-c3c[nH]c4nc(-c5cnn(C)c5)ccc34)cc2n1C(C)C` [Compound 1963, 4-Fluoro-1-isopropyl-2-methyl-6-(6-(1-methyl-1H-pyrazol-4-yl)-1H-pyrrolo[2,3-b]pyridin-3-yl)-1H-benzo[d]imidazole], the EC50 amounted to 45 nM.

In the case of `Cc1nc2c(F)cc(-c3c[nH]c4ncc(C(=O)O)cc34)cc2n1C(C)C` [Compound 2043, 3-(4-Fluoro-1-isopropyl-2-methyl-1H-benzo[d]imidazol-6-yl)-1H-pyrrolo[2,3-b]pyridine-5-carboxylic acid], the concentration giving a half-maximal response (EC50) stood at 36 nM.

With `Cc1nc2c(F)cc(-c3c[nH]c4ncc(N5CCN(C)CC5)cc34)cc2n1C(C)C` [Compound 367, 4-Fluoro-1-isopropyl-2-methyl-6-(5-(4-methylpiperazin-1-yl)-1H-pyrrolo[2,3-b]pyridin-3-yl)-1H-benzo[d]imidazole], the EC50 is 2 nM.

For the molecule `Cc1cnc2ccc(-c3c[nH]c4ncccc34)nn12` [Compound 34, 3-Methyl-6-(1H-pyrrolo[2,3-b]pyridin-3-yl)imidazo[1,2-b]pyridazine], the concentration giving a half-maximal response (EC50) came to 2 nM.

With `CN1CCN(c2cc(-c3cnc4[nH]cc(-c5ccn6ncc(-c7cnn(C)c7)c6c5)c4c3)ccn2)CC1` [Compound 1384, 3-(3-(1-methyl-1H-pyrazol-4-yl)pyrazolo[1,5-a]pyridin-5-yl)-5-(2-(4-methylpiperazin-1-yl)pyridin-4-yl)-1H-pyrrolo[2,3-b]pyridine], the EC50 was 1 nM.

As for `CN1CCN(c2cc(-c3cnc4[nH]cc(-c5ccc6ncccc6c5)c4c3)ccn2)CC1` [Compound 1404, 6-(5-(2-(4-Methylpiperazin-1-yl)pyridin-4-yl)-1H-pyrrolo[2,3-b]pyridin-3-yl)quinoline], the EC50 was 1 nM.

For `Cn1nnc2ccc(-c3c[nH]c4nc(C5CC5)ccc34)cc21` [Compound 1507, 6-(6-Cyclopropyl-1H-pyrrolo[2,3-b]pyridin-3-yl)-1-methyl-1H-benzo[d][1,2,3]triazole], the EC50 was 38 nM.

`CN(C)Cc1cnc2ccc(-c3c[nH]c4ncccc34)cn12` [Compound 18, 1-(6-(1H-Pyrrolo[2,3-b]pyridin-3-yl)imidazo[1,2-a]pyridin-3-yl)-N,N-dimethylmethanamine]: the EC50 came to 17 nM.

Turning to `CN1CCC(NC(=O)c2cnn3ccc(-c4c[nH]c5nc(C6CCC6)ccc45)cc23)CC1` [Compound 1556, 5-(6-Cyclobutyl-1H-pyrrolo[2,3-b]pyridin-3-yl)-N-(1-methylpiperidin-4-yl)pyrazolo[1,5-a]pyridine-3-carboxamide], the EC50 was 5 nM.

With `O=C1CC2(CCNCC2)Oc2cc(-c3c[nH]c4ncc(-c5cccnc5)cc34)ccc21` [Compound 1192, 7-(5-(Pyridin-3-yl)-1H-pyrrolo[2,3-b]pyridin-3-yl)spiro[chromane-2,4′-piperidin]-4-one], the EC50 came out at 10 nM.

Regarding `CN1CCN(c2ccc(NC(=O)c3cnc4[nH]cc(-c5ccn6ncnc6c5)c4c3)cn2)CC1` [Compound 792, 3-([1,2,4]Triazolo[1,5-a]pyridin-7-yl)-N-(6-(4-methylpiperazin-1-yl)pyridin-3-yl)-1H-pyrrolo[2,3-b]pyridine-5-carboxamide], the EC50 turned out to be 10 nM.

For `CN1CCOc2cc(-c3c[nH]c4ncccc34)ccc2C1=O` [Compound 85, 4-Methyl-8-(1H-pyrrolo[2,3-b]pyridin-3-yl)-3,4-dihydrobenzo[f] [1,4]oxazepin-5(2H)-one], the concentration giving a half-maximal response (EC50) is 25 nM.

`O=C1NCCOc2c1ccc(-c1c[nH]c3ncccc13)c2F` [Compound 86, 9-Fluoro-8-(1H-pyrrolo[2,3-b]pyridin-3-yl)-3,4-dihydrobenzo[f] [1,4]oxazepin-5(2H)-one]: the EC50 worked out at 7 nM.

For `CN1CCN(c2cc(-c3cnc4[nH]cc(-c5cc6ccncc6s5)c4c3)ccn2)CC1` [Compound 1370, 2-(5-(2-(4-Methylpiperazin-1-yl)pyridin-4-yl)-1H-pyrrolo[2,3-b]pyridin-3-yl)thieno[2,3-c]pyridine], the EC50 is 6 nM.

Turning to `CC1(C)NC(=O)c2cc(-c3c[nH]c4ncccc34)nn21` [Compound 9, 6,6-Dimethyl-2-(1H-pyrrolo[2,3-b]pyridin-3-yl)-5,6-dihydro-4H-imidazo[1,5-b]pyrazol-4-one], the EC50 came out at 19 nM.

As for `O=C(Nc1cccnc1)c1cnn2ccc(-c3c[nH]c4nc(CO)ccc34)cc12` [Compound 1809, 5-(6-(Hydroxymethyl)-1H-pyrrolo[2,3-b]pyridin-3-yl)-N-(pyridin-3-yl) pyrazolo[1,5-a]pyridine-3-carboxamide], the concentration giving a half-maximal response (EC50) was 3 nM.

As to `c1cnc2ccc(-c3c[nH]c4nc(-c5cncs5)ccc34)cc2c1` [Compound 2055, 5-(3-(quinolin-6-yl)-1H-pyrrolo[2,3-b]pyridin-6-yl)thiazole], the half-maximal effective concentration (EC50) worked out at 37 nM.

Take `Cn1nnc2ccc(-c3c[nH]c4ncccc34)cc21` [Compound 31, 1-Methyl-6-(1H-pyrrolo[2,3-b]pyridin-3-yl)-1H-benzo[d][1,2,3]triazole]: the half-maximal effective concentration (EC50) is 4 nM.

Regarding `CN1CCN(c2cccc(Nc3ccc4c(-c5ccc6c(c5)CCCO6)c[nH]c4n3)c2)CC1` [Compound 1945, 3-(Chroman-6-yl)-N-(3-(4-methylpiperazin-1-yl)phenyl)-1H-pyrrolo [2,3-]pyridin-6-amine], the EC50 is 125 nM.

With `Cc1ncccc1-c1cnc2[nH]cc(-c3cc(F)c4nc(C)n(C(C)C)c4c3)c2c1` [Compound 1207, 4-Fluoro-1-isopropyl-2-methyl-6-(5-(2-methylpyridin-3-yl)-1H-pyrrolo[2,3-b]pyridin-3-yl)-1H-benzo[d]imidazole], the concentration giving a half-maximal response (EC50) is 2 nM.

With `O=C(c1cnn2ccc(-c3c[nH]c4ncccc34)cc12)N1CCOCC1` [Compound 60, (5-(1H-Pyrrolo[2,3-b]pyridin-3-yl)pyrazolo[1,5-a]pyridin-3-yl) (morpholino)methanone], the EC50 was found to be 6 nM.

Regarding `c1cn2cc(-c3c[nH]c4nc(C5CC5)ccc34)cnc2n1` [Compound 1500, 6-(6-Cyclopropyl-1H-pyrrolo[2,3-b]pyridin-3-yl)imidazo[1,2-a] pyrimidine], the EC50 is 5 nM.
